Series [1] can be described thus: Hydration (water content) of crystalline forms. The conditions noted are these: for Hydration: in words. The series is classed as physicochemical.
Series [2] can be described thus: Crystallinity and morphology (microscopy, X-ray diffraction). The series is classed as physicochemical.
A short description of series [3]: Differential Scanning Calorimetry (DSC), peak temperatures. The format is physicochemical. (In general: DSC measures the heat that a sample takes up or gives off during a temperature scan.)
Series [4] in a line: Hygroscopicity (Equilibrium Moisture Content and rate). The format is physicochemical. The conditions noted are these: for Hygroscopicity: Rate: in words.
A short description of series [5]: Powder properties (density, surface area, flowability). The series is classed as physicochemical. The conditions noted are these: in words.
Series [6] is described as follows: Intrinsic Dissolution Rate. The format is physicochemical. The conditions noted are these: in words.
The conditions of series [7]: compared with α-form or simple salts; powder for reconstitution.

SMILES strings stand for the structures. Entries after “also recorded” stand apart in the source; their conditions may differ. Read-outs that look alike come from different tables or passages of the source.

In the case of `C[C@H]1[C@H](NC(=O)/C(=N\OC(C)(C)C(=O)O)c2csc(N)n2)C(=O)N1S(=O)(=O)O` [β-Form, [3S-[3α(Z),4β]]-3-[[(2-amino-4-thiazolyl)[(1-carboxy-1-methylethoxy)imino]acetyl]amino]-4-methyl-2-oxo-1-azetidinesulfonic acid], in series [1], the “Hydration, water content” value was 0-1 % water and the Hydration entry is “Anhydrous”. The Hydration result in series [1] (listed as β-form) is “anhydrous”. For the same molecule, in series [2], the Morphology entry was “spiny fused spherulites”, the “Crystallinity: X-ray diffraction” value is recorded as “crystalline” and the “Crystallinity: Microscopy” value was “birefringent”. Besides, the “DSC, peak temperature, exotherm” value in series [3] (decomp, when crystallized from absolute ethanol) was found to be 228 °. The “DSC, peak temperature, exotherm” value in series [3] (decomp, when crystallized from absolute methanol) amounted to 238 °. Besides, the “DSC, endotherm” value in series [3] (in words) was “none”. In addition, in series [4], the Hygroscopicity entry is recorded as “nonhygroscopic; also recorded: substantially non-hygroscopic”, the “Hygroscopicity: EMC (Equilibrium Moisture Content)” value is 0-3% and the “Hygroscopicity: Rate” value is “slow”. In addition, the Hygroscopicity entry in series [4] (listed as crystalline, anhydrous form) was “substantially non-hygroscopic”. For the same molecule, in series [5], the Density entry is given as “high”, the Flowability entry was “good” and the “Surface Area” value is recorded as “low”. In addition, the Density result in series [5] (listed as β-form) is listed as “dense”. Moreover, in series [6], the “Intrinsic Dissolution Rate” value is “fast”. Further, the Shelf life result in series [7] is given as “greater than that of the α-form, or for that matter simple salts of the compound”.

Regarding `C[C@H]1[C@H](NC(=O)/C(=N\OC(C)(C)C(=O)O)c2csc(N)n2)C(=O)N1S(=O)(=O)O` [α-Form, [3S-[3α(Z),4β]]-3-[[(2-amino-4-thiazolyl)[(1-carboxy-1-methylethoxy)imino]acetyl]amino]-4-methyl-2-oxo-1-azetidinesulfonic acid], in series [1], the “Hydration, water content” value was 7-14 % water and the Hydration entry is given as “Hydrous”. In addition, in series [2], the Morphology entry was “needles or rods”, the “Crystallinity: X-ray diffraction” value was “crystalline” and the “Crystallinity: Microscopy” value is listed as “birefringent”. In addition, the “DSC, peak temperature, exotherm” value in series [3] (decomp.) came out at 200 °C. Besides, in series [3] (dehydration), the “DSC, peak temperature, endotherm” value worked out at 107 °C. Besides, in series [4], the “Hygroscopicity: EMC (Equilibrium Moisture Content)” value was 0-14% and the “Hygroscopicity: Rate” value is given as “rapid”. Also, in series [5], the Density result is “low”, the Flowability result is recorded as “poor” and the “Surface Area” value was “high”. For the same molecule, the “Intrinsic Dissolution Rate” value in series [6] is listed as “slow”.

The record behind these values is US4946838A, “Crystalline anhydrous aztreonam” (priority 1986, dated 1990).
